The values below come from patent US20080139612A1, “Chemical Compound” (ASTRAZENECA AB, priority 2006, published 2008).

The target in one assay is T1, CCR5 (Homo sapiens, UniProt P51681).
T1 construct: After 21 to 34 days culture, the membranes were prepared from the cells; endogenous in cells; host or cells: Allo-T cells (allo-reactive T cell line from human PBMCs), membrane preparation
As to the kind of experiment: Displacement of radio-labelled CCR5 antagonist from Allo-T cell membranes (inhibition of MIP-1β binding). To be noted: membranes of human allo-reactive T cells; 2 nM [3H] CCR5 antagonist; 2 hours at room temperature; read-out: IC50, concentration which displaced 50% of bound radio-labelled CCR5 antagonist. How it is done:
The ability of the compound of the present invention to inhibit the binding of MIP-1β (CCL-4) was measured:
An allo-reactive T cell line was generated by exposure of human peripheral blood mononuclear cells (PBMCs) to L-DR4/B7 fibroblasts (immobilised with glutaraldehyde fixation and irradiation) and subsequent expansion with anti-CD3 and IL-2 for 14 days. The resultant Allo-T cells were frozen. When required, the cells were grown and re-challenged with irradiated HLA-DR4+ve PBMCs and expanded with anti-CD3 and IL-2. After 21 to 34 days culture, the membranes were prepared from the cells. These membranes were incubated in 96-well plates with 2 nM of the radio-labelled CCR5 antagonist [^3H]1-{(3R)-3-(3,5-difluorophenyl)-3-[4-(methylsulfonyl)phenyl]propyl}-4-(2-{[4-(methylsulfonyl)phenyl]sulfonyl}ethyl)piperidine and various concentrations of the compound of the invention for 2 hours at room temperature. The plates were then harvested onto GF/B filter plates (which had been pre-soaked soaked in 0.3% PEI containing 0.2% BSA for 10 min at 4° C.) using a Packard Unifilter harvester using 10 wash steps. The amount of [^3H]1-{(3R)-3-(3,5-difluorophenyl)-3-[4-(methylsulfonyl)phenyl]propyl}-4-(2-{[4-(methylsulfonyl)phenyl]sulfonyl}ethyl)piperidine retained on the filter plates was determined by scintillation counting. […]

The subject of assay [1] is T-cells, chemotaxis in response to MIP-1β (CCL-4). The experiment in a line: Inhibition of chemotaxis of T-cells in response to MIP-1β (CCL-4). It counts as cell-based. To be noted: human allo-reactive T cell line; 1 nM MIP-1β; 1 hour at 37° C.; read-out: IC50, concentration which inhibited 50% of the chemotactic response. How it is done: The ability of the compound of the present invention to inhibit the chemotaxis of T-cells in response to MIP-1β (CCL-4) was measured:
An allo-reactive T cell line was generated by exposure of human peripheral blood mononuclear cells (PBMCs) to L-DR4/B7 fibroblasts (immobilised with glutaraldehyde fixation and irradiation) and subsequent expansion with IL-2 and anti-CD3. When required, the cells were grown and re-challenged with irradiated HLA-DR4+ve PBMCs and expanded with anti-CD3 and IL-2. The cells were used between day 21 and 34. 1 nM of MIP-1β plus varying concentrations of the CCR5 antagonist [^3H]1-{(3R)-3-(3,5-difluorophenyl)-3-[4-(methylsulfonyl)phenyl]propyl}-4-(2-{[4-(methylsulfonyl)phenyl]sulfonyl}ethyl)piperidine were placed in assay buffer in the bottom of a 96-well Neuroprobe Chemo TX chemotaxis plate and cells that had been loaded with a fluorescent dye and pre-incubated with varying concentration of the CCR5 antagonist were pipetted onto the surface of a 5 micron pore size membrane according to the manufacturers specifications. After 1 hour of incubation with the compound of the invention at 37° C., the unmigrated cells were washed off the surface of the plate with PBS and the […] by reading on a 96-well fluorescent plate reader. […]

T1 sequence (P51681 whole entry): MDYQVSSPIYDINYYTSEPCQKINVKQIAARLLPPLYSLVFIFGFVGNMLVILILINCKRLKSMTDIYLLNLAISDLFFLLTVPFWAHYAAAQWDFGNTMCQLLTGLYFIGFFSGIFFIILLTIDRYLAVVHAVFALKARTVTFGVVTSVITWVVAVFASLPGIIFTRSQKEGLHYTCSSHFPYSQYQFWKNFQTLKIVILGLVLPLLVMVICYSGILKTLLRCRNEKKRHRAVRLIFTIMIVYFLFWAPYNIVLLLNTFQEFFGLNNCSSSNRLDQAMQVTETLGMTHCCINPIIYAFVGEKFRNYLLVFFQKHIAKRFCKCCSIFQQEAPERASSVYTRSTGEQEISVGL

Consider `Cc1nnc(C(C)(F)F)n1C1CCN([C@H](C)C[C@@H](c2cc(F)cc(F)c2)C2CCN(S(C)(=O)=O)CC2)CC1` (single isomer, unassigned), for which the IC50 was 3.4 nM on CCR5 and 2.1 nM in assay [1].

`Cc1nnc(C(F)(F)F)n1C1CCN(CC[C@@H](c2cc(F)cc(F)c2)C2CCN(S(C)(=O)=O)CC2)CC1` [Comparator Compound A, 1-{(3R)-3-(3,5-difluorophenyl)-3-[1-(methylsulfonyl)piperidin-4-yl]propyl}-4-[3-methyl-5-(trifluoromethyl)-4H-1,2,4-triazol-4-yl]piperidine]: the IC50 at CCR5 came to 39 nM; in assay [1], 68 nM.
